Assays:
[1] = target: Dipeptidyl peptidase 9 (Homo sapiens, UniProt Q86TI2); assay: Inhibition of DPP9
[2] = target: Dipeptidyl peptidase 8 (Homo sapiens, UniProt Q6V1X1); assay: Inhibition of DPP8
[3] = target: Dipeptidyl peptidase 2 (Homo sapiens, UniProt Q9UHL4); assay: Inhibition of QPP
[4] = target: Dipeptidyl peptidase 4 (Homo sapiens, UniProt P27487); assay: Inhibition of DPP4
[5] = species: Homo sapiens; assay: Selectivity for DPP4 over QPP
[6] = target: Voltage-gated inwardly rectifying potassium channel KCNH2 (Homo sapiens, UniProt Q12809); assay: Inhibition of hERG potassium channel; type: toxicity
[7] = Plasma clearance in rat at 1 mg/kg, iv and 2 mg/kg, po; type: ADME, organism-based
[8] = Half life in rat at 1 mg/kg, iv and 2 mg/kg, po; type: ADME, organism-based; settings: in vivo
[9] = Oral bioavailability in rat at 1 mg/kg, iv and 2 mg/kg, po; type: ADME, organism-based; settings: in vivo
[10] = Oral bioavailability in dog; type: ADME, organism-based, Canis lupus familiaris; settings: in vivo
[11] = Half life in dog; type: ADME, organism-based, Canis lupus familiaris; settings: in vivo

Sequence of Dipeptidyl peptidase 4 (P27487 whole entry): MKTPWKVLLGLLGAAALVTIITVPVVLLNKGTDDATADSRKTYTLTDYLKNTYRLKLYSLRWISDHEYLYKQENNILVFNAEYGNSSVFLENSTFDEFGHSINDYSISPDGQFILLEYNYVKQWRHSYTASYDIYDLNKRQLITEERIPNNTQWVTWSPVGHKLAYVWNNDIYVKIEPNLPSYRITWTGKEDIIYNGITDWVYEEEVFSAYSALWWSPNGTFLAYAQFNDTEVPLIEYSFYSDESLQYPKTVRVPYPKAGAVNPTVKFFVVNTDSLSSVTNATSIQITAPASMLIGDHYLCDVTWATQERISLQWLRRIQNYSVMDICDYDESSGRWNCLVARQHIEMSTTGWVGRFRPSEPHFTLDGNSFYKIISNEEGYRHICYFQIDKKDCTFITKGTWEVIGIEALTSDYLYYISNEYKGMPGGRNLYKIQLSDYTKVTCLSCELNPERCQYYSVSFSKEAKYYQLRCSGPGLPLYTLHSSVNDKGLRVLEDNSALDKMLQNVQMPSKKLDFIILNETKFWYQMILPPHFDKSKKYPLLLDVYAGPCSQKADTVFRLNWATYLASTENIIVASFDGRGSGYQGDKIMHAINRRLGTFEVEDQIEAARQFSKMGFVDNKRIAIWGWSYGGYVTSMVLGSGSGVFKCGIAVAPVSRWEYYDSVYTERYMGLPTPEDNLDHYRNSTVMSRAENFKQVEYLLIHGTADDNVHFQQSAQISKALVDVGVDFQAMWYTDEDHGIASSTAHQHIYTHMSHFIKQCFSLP
Sequence of Dipeptidyl peptidase 8 (Q6V1X1 whole entry): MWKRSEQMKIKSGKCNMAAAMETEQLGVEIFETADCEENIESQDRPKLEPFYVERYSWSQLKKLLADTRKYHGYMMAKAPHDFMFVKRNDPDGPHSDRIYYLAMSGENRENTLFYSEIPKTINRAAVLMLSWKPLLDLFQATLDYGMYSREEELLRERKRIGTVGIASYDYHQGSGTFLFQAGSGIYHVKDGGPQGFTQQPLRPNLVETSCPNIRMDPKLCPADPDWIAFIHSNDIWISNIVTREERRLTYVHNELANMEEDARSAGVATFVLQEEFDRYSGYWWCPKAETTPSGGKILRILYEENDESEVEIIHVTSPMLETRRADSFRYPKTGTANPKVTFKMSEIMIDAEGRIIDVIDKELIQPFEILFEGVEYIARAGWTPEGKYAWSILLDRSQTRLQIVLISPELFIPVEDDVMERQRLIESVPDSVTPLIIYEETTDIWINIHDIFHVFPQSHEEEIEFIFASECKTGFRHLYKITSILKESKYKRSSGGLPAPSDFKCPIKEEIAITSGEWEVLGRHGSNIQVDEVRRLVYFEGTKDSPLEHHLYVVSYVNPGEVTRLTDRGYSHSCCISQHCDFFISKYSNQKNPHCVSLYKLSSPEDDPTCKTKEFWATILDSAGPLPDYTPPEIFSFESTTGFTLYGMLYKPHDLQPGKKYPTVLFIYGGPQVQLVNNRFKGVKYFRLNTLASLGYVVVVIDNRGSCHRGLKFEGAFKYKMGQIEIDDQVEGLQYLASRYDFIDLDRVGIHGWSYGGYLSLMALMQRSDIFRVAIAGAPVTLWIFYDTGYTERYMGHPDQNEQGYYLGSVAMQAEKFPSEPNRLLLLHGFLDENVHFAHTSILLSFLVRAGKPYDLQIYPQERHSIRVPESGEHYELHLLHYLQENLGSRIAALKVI
Sequence of Dipeptidyl peptidase 9 (Q86TI2 whole entry): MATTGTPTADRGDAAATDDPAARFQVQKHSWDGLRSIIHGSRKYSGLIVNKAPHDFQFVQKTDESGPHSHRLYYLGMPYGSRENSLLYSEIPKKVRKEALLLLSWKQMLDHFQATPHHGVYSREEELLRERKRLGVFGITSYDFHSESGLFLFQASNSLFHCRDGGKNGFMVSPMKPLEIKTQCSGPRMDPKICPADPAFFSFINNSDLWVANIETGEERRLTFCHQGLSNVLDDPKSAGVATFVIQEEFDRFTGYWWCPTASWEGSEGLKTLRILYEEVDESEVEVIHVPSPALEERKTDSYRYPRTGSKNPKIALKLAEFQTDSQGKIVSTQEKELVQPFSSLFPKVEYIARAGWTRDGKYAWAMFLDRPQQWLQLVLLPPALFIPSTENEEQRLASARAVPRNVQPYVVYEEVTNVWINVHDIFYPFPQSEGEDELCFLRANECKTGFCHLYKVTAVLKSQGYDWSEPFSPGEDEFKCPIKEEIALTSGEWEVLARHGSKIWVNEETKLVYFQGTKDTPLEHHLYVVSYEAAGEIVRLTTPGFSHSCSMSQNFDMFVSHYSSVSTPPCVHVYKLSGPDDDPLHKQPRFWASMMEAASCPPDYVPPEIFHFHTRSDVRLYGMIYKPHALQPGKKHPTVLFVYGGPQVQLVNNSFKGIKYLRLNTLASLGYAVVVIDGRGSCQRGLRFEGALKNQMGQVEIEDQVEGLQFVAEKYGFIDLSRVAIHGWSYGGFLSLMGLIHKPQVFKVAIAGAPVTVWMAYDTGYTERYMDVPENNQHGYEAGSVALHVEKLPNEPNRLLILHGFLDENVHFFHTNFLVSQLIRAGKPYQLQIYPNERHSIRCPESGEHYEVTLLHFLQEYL
Sequence of Voltage-gated inwardly rectifying potassium channel KCNH2 (Q12809 whole entry): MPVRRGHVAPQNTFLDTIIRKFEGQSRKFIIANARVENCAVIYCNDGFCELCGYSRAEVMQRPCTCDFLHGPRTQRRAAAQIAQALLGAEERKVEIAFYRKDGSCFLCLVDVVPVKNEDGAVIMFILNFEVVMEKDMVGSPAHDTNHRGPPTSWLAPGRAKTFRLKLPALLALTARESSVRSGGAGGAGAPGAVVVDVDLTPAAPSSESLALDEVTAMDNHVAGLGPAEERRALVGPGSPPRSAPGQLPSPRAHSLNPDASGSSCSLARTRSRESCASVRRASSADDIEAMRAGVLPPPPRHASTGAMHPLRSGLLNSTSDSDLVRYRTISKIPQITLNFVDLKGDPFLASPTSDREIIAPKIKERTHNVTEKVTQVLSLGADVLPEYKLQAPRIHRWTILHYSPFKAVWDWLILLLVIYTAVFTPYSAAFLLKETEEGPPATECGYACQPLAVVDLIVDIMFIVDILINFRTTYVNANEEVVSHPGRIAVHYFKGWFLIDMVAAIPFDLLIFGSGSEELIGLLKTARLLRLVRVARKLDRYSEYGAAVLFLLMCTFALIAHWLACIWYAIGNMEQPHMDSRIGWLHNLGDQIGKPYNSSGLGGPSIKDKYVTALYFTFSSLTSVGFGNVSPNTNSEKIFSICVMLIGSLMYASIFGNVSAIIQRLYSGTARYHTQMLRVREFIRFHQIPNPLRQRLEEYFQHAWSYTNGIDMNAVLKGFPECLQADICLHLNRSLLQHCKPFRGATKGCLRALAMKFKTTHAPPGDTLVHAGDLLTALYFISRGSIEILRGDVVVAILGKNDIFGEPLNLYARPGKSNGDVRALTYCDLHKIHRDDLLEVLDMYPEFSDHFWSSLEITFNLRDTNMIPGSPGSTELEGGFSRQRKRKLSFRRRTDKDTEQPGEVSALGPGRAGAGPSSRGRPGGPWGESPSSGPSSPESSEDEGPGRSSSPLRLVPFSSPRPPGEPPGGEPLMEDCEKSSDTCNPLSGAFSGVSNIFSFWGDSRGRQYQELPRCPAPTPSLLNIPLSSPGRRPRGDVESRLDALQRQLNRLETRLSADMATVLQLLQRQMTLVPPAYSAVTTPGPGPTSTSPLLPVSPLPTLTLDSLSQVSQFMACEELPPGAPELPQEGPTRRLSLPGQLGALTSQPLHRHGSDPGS

IC50 [1] [µM]	IC50 [2] [µM]	IC50 [3] [µM]	IC50 [4] [µM]	Ratio IC50 [5]	clearance [7] [mL/min/kg]	half-life [8] [h]	bioavailability [9] [%]	bioavailability [10] [%]	half-life [11] [h]	SMILES	IC50 [6] [µM]
> 100	> 100	2.92	0.031							Cc1cc(S(C)(=O)=O)ccc1-c1noc([C@@H](CC2CC2)[C@H](N)C(=O)N2CC[C@H](F)C2)n1	
> 100	> 100	24.4	0.33							C[C@H](c1nc(-c2ccc(S(=O)(=O)C(F)(F)F)cc2)no1)[C@H](N)C(=O)N1CCCC1	
> 100	> 100	2.5	7.36							C[C@H](c1nc(-c2cc(Cl)cc(Cl)c2)no1)[C@H](N)C(=O)N1CCCC1	
> 100	> 100	8.1	4.59							C[C@H](c1nc(-c2ccc(F)cc2F)no1)[C@H](N)C(=O)N1CCCC1	
> 100	> 100	4.3	15.6							C[C@H](c1nc(-c2cccc(C(F)(F)F)c2)no1)[C@H](N)C(=O)N1CCCC1	
> 100	> 100	1.8	4.82							C[C@H](c1nc(-c2ccccc2C(F)(F)F)no1)[C@H](N)C(=O)N1CCCC1	
> 100	> 100									C[C@H](c1nc(-c2ccc(S(C)(=O)=O)cc2)no1)[C@H](N)C(=O)N1CCCC1	
> 100	> 100	1.05	1.83							C[C@H](c1nc(-c2ccc(Cl)cc2Cl)co1)[C@H](N)C(=O)N1CCCC1	
> 100	> 100									CS(=O)(=O)c1ccc(-c2noc([C@@H](CC3CC3)[C@H](N)C(=O)N3CC[C@H](F)C3)n2)c(Cl)c1	
> 100	> 100				13.8	2.71	35			C[C@H](c1nc(-c2ccc(Cl)cc2Cl)no1)[C@H](N)C(=O)N1CCCC1.O=C(O)C(F)(F)F	36.7
> 100	> 100	1.4	0.008							C[C@H](c1nc(-c2ccc(NS(C)(=O)=O)cc2Cl)no1)[C@H](N)C(=O)N1CCCC1	
> 100	> 100	3.7	0.013							CC(C)C[C@H](c1nc(-c2ccc(S(C)(=O)=O)cc2Cl)no1)[C@H](N)C(=O)N1CC[C@H](F)C1	
> 100	> 100	26.8	0.19							C[C@H](c1nc(-c2ccc(S(N)(=O)=O)cc2)no1)[C@H](N)C(=O)N1CCCC1	
> 100	> 100	2.57	0.019							C[C@H](c1nc(-c2ccc(NS(C)(=O)=O)cc2Cl)no1)[C@H](N)C(=O)N1CC[C@H](F)C1	
> 100	> 100	3.8	3.82							C[C@H](c1nc(-c2ccc(Cl)cc2)no1)[C@H](N)C(=O)N1CCCC1	
> 100	> 100				18.7	1.3	36	95	1.75	CS(=O)(=O)c1ccc(-c2noc([C@@H](CC3CC3)[C@H](N)C(=O)N3CC[C@H](F)C3)n2)c(F)c1.O=C(O)C(F)(F)F	58.5
> 100	> 100				6	0.82	27			C[C@H](c1nc(-c2ccc(S(C)(=O)=O)cc2Cl)no1)[C@H](N)C(=O)N1CCCC1	
> 100	> 100	5.7	19.7							C[C@H](c1nc(-c2ccccc2)no1)[C@H](N)C(=O)N1CCCC1	
> 100	> 100	0.16	0.019							C[C@H](c1nc(-c2ccc(NS(C)(=O)=O)cc2Cl)no1)[C@H](N)C(=O)N1CCC(F)(F)C1	

Continued, compound first:

SMILES	IC50 [1] [µM]	IC50 [2] [µM]	IC50 [3] [µM]	IC50 [4] [µM]	Ratio IC50 [5]	clearance [7] [mL/min/kg]	half-life [8] [h]	bioavailability [9] [%]	bioavailability [10] [%]	half-life [11] [h]	IC50 [6] [µM]
CS(=O)(=O)c1ccc(-c2noc([C@@H](CCO)[C@H](N)C(=O)N3CC[C@H](F)C3)n2)c(Cl)c1	> 100	> 100									
C[C@H](c1nnc(-c2ccc(Cl)cc2Cl)o1)[C@H](N)C(=O)N1CCCC1	> 100	> 100	0.85	0.56							
C[C@H](c1nc(-c2ccccc2Cl)no1)[C@H](N)C(=O)N1CCCC1	> 100	> 100	2.2	0.99							
C[C@H](c1nc(-c2ccc(S(C)(=O)=O)cc2F)no1)[C@H](N)C(=O)N1CCCC1	> 100	> 100	14.1	0.043	> 320						
C[C@H](c1n[nH]c(-c2ccc(Cl)cc2Cl)n1)[C@H](N)C(=O)N1CCCC1	> 100	> 100	5.41	3.05							
C[C@H](c1noc(-c2ccc(Cl)cc2Cl)n1)[C@H](N)C(=O)N1CCCC1	> 100	> 100	4.2	1.21							
C[C@H](c1nc(-c2ccc(OC(F)(F)F)cc2)no1)[C@H](N)C(=O)N1CCCC1	> 100	> 100	5.2	1.79							
C[C@H](c1nc(-c2ccc(S(C)(=O)=O)cc2Cl)no1)[C@H](N)C(=O)N1CC[C@H](F)C1	> 100	> 100									
C[C@H](c1nc(-c2ccc(Br)cc2Cl)no1)[C@H](N)C(=O)N1CCCC1	> 100	> 100	1.3	0.16							
C[C@H](c1nc(-c2ccccc2C(F)F)no1)[C@H](N)C(=O)N1CCCC1	> 100	> 100	1	1.82							
C[C@H](c1nc(-c2ccc(NS(C)(=O)=O)cc2)no1)[C@H](N)C(=O)N1CCCC1	> 100	> 100	5.4	0.52							
C[C@H](c1nc(-c2ccccc2F)no1)[C@H](N)C(=O)N1CCCC1	> 100	> 100	4.5	4.79							
C[C@H](c1nc(-c2ccc(NS(C)(=O)=O)cc2Cl)no1)[C@H](N)C(=O)N1CC[C@@H](F)C1	> 100	> 100	1.7	0.019							
C[C@H](c1nc(-c2ccccc2OC(F)(F)F)no1)[C@H](N)C(=O)N1CCCC1	> 100	> 100	2.5	12.4							
C[C@H](c1nc(-c2ccc(C(F)(F)F)cc2)no1)[C@H](N)C(=O)N1CCCC1	> 100	> 100	6	1.61							
CS(=O)(=O)c1ccc(-c2noc([C@@H](CC3CC3)[C@H](N)C(=O)N3CC[C@H](F)C3)n2)cc1.O=C(O)C(F)(F)F	> 100	> 100	20.4	0.052		11.2	1.8	49			
C[C@H](c1nc(-c2ccc(F)cc2Cl)no1)[C@H](N)C(=O)N1CCCC1	> 100	> 100	3	0.83							
